The experiment has as its target AMPK. As to the kind of experiment: AMPK activation, enzyme-linked immunosorbent assay. Type of experiment: biochemical. The settings on record: EC50 for AMPK activation, ELISA. A digest of the protocol:
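Read-out: immunodetected kinase activation after compound exposure, run with commercial kit reagents.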
On the technique in general: In an ELISA, binding on a coated surface is turned into a signal by an enzyme label.
In general, EC50 refers to the concentration giving half of the maximal effect. A higher EC50 goes with a need for much substance. `CC(=O)Nc1ccc(OC2CCN(C(=O)c3ccc(C(=O)NC4CCN(Cc5ccc(F)cc5)CC4)cn3)CC2)cc1` [Compound 406, 6-(4-(4-acetamidophenoxy)piperidine-1-carbonyl)-N-(1-(4-fluorobenzyl)piperidin-4-yl)nicotinamide] gave an EC50 of 500 to 1000 nM.
`COc1ccc(CN2CCC(NC(=O)c3ccc(C(=O)N4CCC(Oc5ccc(NC(C)=O)cc5)CC4)nc3)CC2)cc1` [Compound 407, 6-(4-(4-acetamidophenoxy)piperidine-1-carbonyl)-N-(1-(4-methoxybenzyl)piperidin-4-yl)nicotinamide] had an EC50 of less than 500 nM.
Next, `CC(=O)Nc1ccc(OC2CCN(C(=O)c3ccc(C(=O)Nc4ccc(Oc5ccc(F)cc5)nc4)nc3)CC2)cc1` [Compound 408, 5-(4-(4-acetamidophenoxy)piperidine-1-carbonyl)-N-(6-(4-fluorophenoxy)pyridin-3-yl)picolinamide]: less than 500 nM; `N#Cc1ccc(CN2CCC(NC(=O)c3ccc(C(=O)N4CCC(Oc5ccc(NC(=O)C6CC6)cc5)CC4)nc3)CC2)cc1` [Compound 409, N-(1-(4-cyanobenzyl)piperidin-4-yl)-6-(4-(4-(cyclopropane-carboxamido)phenoxy)piperidine-1-carbonyl)nicotinamide]: less than 500 nM; `N#Cc1ccc(CN2CCC(NC(=O)c3ccc(C(=O)N4CCC(Oc5ccc(SC(F)(F)F)cc5)CC4)cn3)CC2)cc1` [Compound 410, N-(1-(4-cyanobenzyl)piperidin-4-yl)-5-(4-(4-(trifluoromethylthio)phenoxy)piperidine-1-carbonyl)picolinamide]: less than 500 nM.
Next, `CC(=O)Nc1cccc(OC2CCN(C(=O)c3ccc(C(=O)NC4CCN(Cc5ccc(C#N)cc5)CC4)cn3)CC2)c1` [Compound 411, 6-(4-(3-acetamidophenoxy)piperidine-1-carbonyl)-N-(1-(4-cyanobenzyl)piperidin-4-yl)nicotinamide]: 1000 to 5000 nM; `COc1ccc(CN2CCC(NC(=O)c3ccc(C(=O)N4CCC(Oc5cccc(NC(C)=O)c5)CC4)nc3)CC2)cc1` [Compound 412, 6-(4-(3-acetamidophenoxy)piperidine-1-carbonyl)-N-(1-(4-methoxybenzyl)piperidin-4-yl)nicotinamide]: 1000 to 5000 nM; `CC(=O)Nc1cccc(OC2CCN(C(=O)c3ccc(C(=O)NC4CCN(Cc5ccc(F)cc5)CC4)cn3)CC2)c1` [Compound 413, 6-(4-(3-acetamidophenoxy)piperidine-1-carbonyl)-N-(1-(4-fluorobenzyl)piperidin-4-yl)nicotinamide]: 1000 to 5000 nM.
In turn, `CC(=O)Nc1cccc(OC2CCN(C(=O)c3ccc(C(=O)Nc4ccc(Oc5ccc(F)cc5)nc4)cn3)CC2)c1` [Compound 414, 6-(4-(3-acetamidophenoxy)piperidine-1-carbonyl)-N-(6-(4-fluorophenoxy)pyridin-3-yl)nicotinamide] returned an EC50 of 1000 to 5000 nM.
Compound `N#Cc1ccc(CN2CCC(NC(=O)c3ccc(C(=O)N4CCC(Oc5ccc(S(=O)(=O)C(F)(F)F)cc5)CC4)cn3)CC2)cc1` [Compound 415, N-(1-(4-cyanobenzyl)piperidin-4-yl)-5-(4-(4-(trifluoromethylsulfonyl)phenoxy)piperidine-1-carbonyl)picolinamide] came in with an EC50 of less than 500 nM.
`COc1ccc(C(=O)C2CCN(C(=O)c3ncc(C(=O)NC4CCN(Cc5ccc(C#N)cc5)CC4)cc3CCCNC(=O)OC(C)(C)C)CC2)cc1` [Compound 416, tert-butyl 3-(5-(1-(4-cyanobenzyl)piperidin-4-ylcarbamoyl)-2-(4-(4-methoxybenzoyl)piperidine-1-carbonyl)pyridin-3-yl)propylcarbamate] registered an EC50 of 1000 to 5000 nM.
As to `N#Cc1ccc(N2CCC(NC(=O)c3ccc(C(=O)N4CCN(Cc5ccc(F)cc5)CC4)nc3)CC2)cc1` [Compound 417, N-(1-(4-cyanophenyl)piperidin-4-yl)-6-(4-(4-fluorobenzyl)piperazine-1-carbonyl)nicotinamide], the EC50 was less than 500 nM.
`N#Cc1ccc(OC2CCN(C(=O)c3ccc(C(=O)NC4CCN(c5ccc(C#N)cc5)CC4)cn3)CC2)cc1` [Compound 418, 6-(4-(4-cyanophenoxy)piperidine-1-carbonyl)-N-(1-(4-cyanophenyl)piperidin-4-yl)nicotinamide] showed an EC50 of less than 500 nM.
The compound `N#Cc1ccc(CN2CCC(NC(=O)c3ccc(C(=O)N4CCC(C(=O)c5cccs5)CC4)cn3)CC2)cc1` [Compound 419, N-(1-(4-cyanobenzyl)piperidin-4-yl)-5-(4-(thiophene-2-carbonyl)piperidine-1-carbonyl)picolinamide] showed an EC50 of less than 500 nM.
Next, `CS(=O)(=O)c1ccc(N2CCC(NC(=O)c3ccc(C(=O)N4CCC(Oc5ccc(C#N)cc5)CC4)nc3)CC2)cc1` [Compound 420, 6-(4-(4-cyanophenoxy)piperidine-1-carbonyl)-N-(1-(4-(methylsulfonyl)phenyl)piperidin-4-yl)nicotinamide]: 1000 to 5000 nM; `N#Cc1ccc(OC2CCN(C(=O)c3ccc(C(=O)NC4CCN(c5ccc(F)cc5)CC4)cn3)CC2)cc1` [Compound 422, 6-(4-(4-cyanophenoxy)piperidine-1-carbonyl)-N-(1-(4-fluorophenyl)piperidin-4-yl)nicotinamide]: 1000 to 5000 nM; `COc1ccc(N2CCC(NC(=O)c3ccc(C(=O)N4CCC(Oc5ccc(C#N)cc5)CC4)nc3)CC2)cc1` [Compound 423, 6-(4-(4-cyanophenoxy)piperidine-1-carbonyl)-N-(1-(4-methoxyphenyl)piperidin-4-yl)nicotinamide]: less than 500 nM.
Compound `COc1ccc(C(=O)C2CCN(C(=O)c3ccc(C(=O)NC4CCN(Cc5cccc(OC(F)(F)F)c5)CC4)cn3)CC2)cc1` [Compound 424, 6-(4-(4-methoxybenzoyl)piperidine-1-carbonyl)-N-(1-(3-(trifluoromethoxy)benzyl)piperidin-4-yl)nicotinamide] came in with an EC50 of less than 500 nM.
`COc1ccc(C(=O)C2CCN(C(=O)c3ccc(C(=O)NC4CCN(Cc5cccc(OC)c5)CC4)cn3)CC2)cc1` [Compound 425, 6-(4-(4-methoxybenzoyl)piperidine-1-carbonyl)-N-(1-(3-methoxybenzyl)piperidin-4-yl)nicotinamide] came in with an EC50 of less than 500 nM.
For `COc1ccc(C(=O)C2CCN(C(=O)c3ccc(C(=O)N[C@@H]4CCN(Cc5cc(C)on5)C[C@@H]4F)cn3)CC2)cc1` [Compound 426, N-((3S,4R)-3-fluoro-1-((5-methylisoxazol-3-yl)methyl)piperidin-4-yl)-6-(4-(4-methoxybenzoyl)piperidine-1-carbonyl)nicotinamide], the EC50 was less than 500 nM.
`COc1ccc(C(=O)C2CCN(C(=O)c3ccc(C(=O)N[C@@H]4CCN(Cc5csc(C)n5)C[C@@H]4F)cn3)CC2)cc1` [Compound 427, N-((3S,4R)-3-fluoro-1-((2-methylthiazol-4-yl)methyl)piperidin-4-yl)-6-(4-(4-methoxybenzoyl)piperidine-1-carbonyl)nicotinamide] gave an EC50 of 1000 to 5000 nM.
Turning to `CC(=O)Nc1ccc(OC2CCN(C(=O)c3ccc(C(=O)NC4CCN(Cc5cccc(OC(F)(F)F)c5)CC4)cn3)CC2)cc1` [Compound 428, 6-(4-(4-acetamidophenoxy)piperidine-1-carbonyl)-N-(1-(3-(trifluoromethoxy)benzyl)piperidin-4-yl)nicotinamide], the EC50 was in the range of 500 to 1000 nM.
Take `N#Cc1ccc(CN2CCC(NC(=O)c3ccc(C(=O)N4CCC(Oc5cccc(NC(=O)C6CC6)c5)CC4)nc3)CC2)cc1` [Compound 431, N-(1-(4-cyanobenzyl)piperidin-4-yl)-6-(4-(3-(cyclopropanecarboxamido)phenoxy)piperidine-1-carbonyl)nicotinamide]: the EC50 fell in the range of 500 to 1000 nM.
`O=C(NC1CCN(Cc2ccc(F)cc2)CC1)c1ccc(C(=O)N2CCC(Oc3cccc(NC(=O)C4CC4)c3)CC2)nc1` [Compound 432, 6-(4-(3-(cyclopropanecarboxamido)phenoxy)piperidine-1-carbonyl)-N-(1-(4-fluorobenzyl)piperidin-4-yl)nicotinamide] returned an EC50 of 500 to 1000 nM.
`O=C(Nc1ccc(Oc2ccc(F)cc2)nc1)c1ccc(C(=O)N2CCC(Oc3cccc(NC(=O)C4CC4)c3)CC2)nc1` [Compound 433, 6-(4-(3-(cyclopropanecarboxamido)phenoxy)piperidine-1-carbonyl)-N-(6-(4-fluorophenoxy)pyridin-3-yl)nicotinamide] registered an EC50 of less than 500 nM.
Turning to `N#Cc1ccc(O[C@H]2CC[C@@H](NC(=O)c3ccc(C(=O)N4CCC(Oc5cccc(NC(=O)C6CC6)c5)CC4)nc3)CC2)cc1` [Compound 434, N-((cis)-4-(4-cyanophenoxy)cyclohexyl)-6-(4-(3-(cyclopropanecarboxamido)phenoxy)piperidine-1-carbonyl)nicotinamide], the EC50 is less than 500 nM.
`COc1ccc(CN2CCC(NC(=O)c3ccc(C(=O)N4CCC(Oc5cccc(NC(=O)C6CC6)c5)CC4)nc3)CC2)cc1` [Compound 435, 6-(4-(3-(cyclopropanecarboxamido)phenoxy)piperidine-1-carbonyl)-N-(1-(4-methoxybenzyl)piperidin-4-yl)nicotinamide]: the EC50 is less than 500 nM.
The figure for `N#Cc1ccc(CN2CCC(NC(=O)c3ccc(C(=O)N4CCC(Oc5ccc(SC(F)(F)F)cc5)CC4)nn3)CC2)cc1` [Compound 436, N-(1-(4-cyanobenzyl)piperidin-4-yl)-6-(4-(4-(trifluoromethylthio)phenoxy)piperidine-1-carbonyl)pyridazine-3-carboxamide] is less than 500 nM; for `O=C(NC1CCN(Cc2ccc(OC(F)(F)F)cc2)CC1)c1ccc(C(=O)N2CCC(Oc3cccc(NC(=O)C4CC4)c3)CC2)nc1` [Compound 438, 6-(4-(3-(cyclopropanecarboxamido)phenoxy)piperidine-1-carbonyl)-N-(1-(4-(trifluoromethoxy)benzyl)piperidin-4-yl)nicotinamide] it is less than 500 nM; for `COc1ccc(CN2CCC(NC(=O)c3ccc(C(=O)N4CCC(C(=O)c5ccc(N6CCCC6)cc5)CC4)nc3)CC2)cc1` [Compound 439, N-(1-(4-methoxybenzyl)piperidin-4-yl)-6-(4-(4-(pyrrolidin-1-yl)benzoyl)piperidine-1-carbonyl)nicotinamide] it is less than 500 nM.

For the origin of these results see patent publication US9663496B2, “AMPK-activating heterocyclic compounds and methods for using the same” (Rigel Pharmaceuticals, Inc., priority 2010, dated 2017).
